Where two headings read alike, the source gives them in different places. Values belong to the compound of their own block, whether it stands above or below them.
What was measured:
[1] = biological target: T1, baculovirus-expressed ALK (Homo sapiens, UniProt Q9UM73); test: ALK Kinase Assay (ELISA-type, time-resolved fluorescence); type: biochemical
T1 construct: host or cells: baculovirus expression system
Method in brief: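 Plates coated with phospholipase C-γ substrate (10 μg/mL in TBS); reaction started with 30 ng/ml ALK and run 15 min at 37° C. Phosphorylated substrate detected with Eu-N1-labeled PT66 antibody. IC50 from sigmoidal variable-slope fit of percent inhibition vs log concentration.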

[2] = biological target: T2, c-Met (cytoplasmic domain) (Homo sapiens, UniProt P08581); test: c-Met Kinase Assay (same methods as for ALK, with modifications); type: biochemical
T2 construct: 10 ng/mL c-Met (cytoplasmic domain, Invitrogen Corporation #PV3143); purchased Invitrogen Corporation PV3143
Method in brief: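 Europium-labeled PT66 antibody (Eu-N1) detects substrate phosphorylation on wells coated with phospholipase C-γ at 10 μg/mL. The kinase, the cytoplasmic domain of c-Met at 10 ng/mL, starts the reaction, which proceeds 15 minutes at 37° C.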

[3] = 1 μM ATP (Km level), read-out: ALK Activity (ALK Kinase Inhibition, IC50)
[4] = 1 μM ATP (Km level), read-out: cMet Activity (c-Met Kinase Inhibition, IC50)
[5] = 1 μM ATP (Km level), 30 ng/ml ALK, 37° C., 15 minutes, read-out: ALK Activity (ALK kinase inhibition, IC50 class)
[6] = 1 μM ATP (Km level), 10 ng/mL c-Met, read-out: cMet Activity (c-Met kinase inhibition, IC50 class)
[7] = ALK kinase inhibition, 1 μM ATP (Km level), read-out: ALK Activity
[8] = c-Met kinase inhibition, 1 μM ATP (Km level), read-out: cMet Activity
[9] = ALK kinase inhibition, 1 μM ATP, read-out: ALK Activity
[10] = c-Met kinase inhibition, 1 μM ATP, read-out: cMet Activity

T2 sequence (P08581 956-1390 limits assumed): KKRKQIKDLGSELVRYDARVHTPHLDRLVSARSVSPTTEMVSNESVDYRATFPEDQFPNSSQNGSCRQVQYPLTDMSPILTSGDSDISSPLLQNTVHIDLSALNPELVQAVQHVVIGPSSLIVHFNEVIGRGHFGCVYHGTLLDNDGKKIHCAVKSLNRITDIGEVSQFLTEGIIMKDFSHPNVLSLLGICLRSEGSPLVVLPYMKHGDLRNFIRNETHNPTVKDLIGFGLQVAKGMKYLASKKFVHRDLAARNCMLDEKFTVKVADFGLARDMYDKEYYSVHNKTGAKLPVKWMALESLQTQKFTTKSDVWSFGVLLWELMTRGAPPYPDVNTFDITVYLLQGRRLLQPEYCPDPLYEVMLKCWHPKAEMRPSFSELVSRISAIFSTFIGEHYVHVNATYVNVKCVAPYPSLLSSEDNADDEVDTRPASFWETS
T1 sequence (Q9UM73 19-1620): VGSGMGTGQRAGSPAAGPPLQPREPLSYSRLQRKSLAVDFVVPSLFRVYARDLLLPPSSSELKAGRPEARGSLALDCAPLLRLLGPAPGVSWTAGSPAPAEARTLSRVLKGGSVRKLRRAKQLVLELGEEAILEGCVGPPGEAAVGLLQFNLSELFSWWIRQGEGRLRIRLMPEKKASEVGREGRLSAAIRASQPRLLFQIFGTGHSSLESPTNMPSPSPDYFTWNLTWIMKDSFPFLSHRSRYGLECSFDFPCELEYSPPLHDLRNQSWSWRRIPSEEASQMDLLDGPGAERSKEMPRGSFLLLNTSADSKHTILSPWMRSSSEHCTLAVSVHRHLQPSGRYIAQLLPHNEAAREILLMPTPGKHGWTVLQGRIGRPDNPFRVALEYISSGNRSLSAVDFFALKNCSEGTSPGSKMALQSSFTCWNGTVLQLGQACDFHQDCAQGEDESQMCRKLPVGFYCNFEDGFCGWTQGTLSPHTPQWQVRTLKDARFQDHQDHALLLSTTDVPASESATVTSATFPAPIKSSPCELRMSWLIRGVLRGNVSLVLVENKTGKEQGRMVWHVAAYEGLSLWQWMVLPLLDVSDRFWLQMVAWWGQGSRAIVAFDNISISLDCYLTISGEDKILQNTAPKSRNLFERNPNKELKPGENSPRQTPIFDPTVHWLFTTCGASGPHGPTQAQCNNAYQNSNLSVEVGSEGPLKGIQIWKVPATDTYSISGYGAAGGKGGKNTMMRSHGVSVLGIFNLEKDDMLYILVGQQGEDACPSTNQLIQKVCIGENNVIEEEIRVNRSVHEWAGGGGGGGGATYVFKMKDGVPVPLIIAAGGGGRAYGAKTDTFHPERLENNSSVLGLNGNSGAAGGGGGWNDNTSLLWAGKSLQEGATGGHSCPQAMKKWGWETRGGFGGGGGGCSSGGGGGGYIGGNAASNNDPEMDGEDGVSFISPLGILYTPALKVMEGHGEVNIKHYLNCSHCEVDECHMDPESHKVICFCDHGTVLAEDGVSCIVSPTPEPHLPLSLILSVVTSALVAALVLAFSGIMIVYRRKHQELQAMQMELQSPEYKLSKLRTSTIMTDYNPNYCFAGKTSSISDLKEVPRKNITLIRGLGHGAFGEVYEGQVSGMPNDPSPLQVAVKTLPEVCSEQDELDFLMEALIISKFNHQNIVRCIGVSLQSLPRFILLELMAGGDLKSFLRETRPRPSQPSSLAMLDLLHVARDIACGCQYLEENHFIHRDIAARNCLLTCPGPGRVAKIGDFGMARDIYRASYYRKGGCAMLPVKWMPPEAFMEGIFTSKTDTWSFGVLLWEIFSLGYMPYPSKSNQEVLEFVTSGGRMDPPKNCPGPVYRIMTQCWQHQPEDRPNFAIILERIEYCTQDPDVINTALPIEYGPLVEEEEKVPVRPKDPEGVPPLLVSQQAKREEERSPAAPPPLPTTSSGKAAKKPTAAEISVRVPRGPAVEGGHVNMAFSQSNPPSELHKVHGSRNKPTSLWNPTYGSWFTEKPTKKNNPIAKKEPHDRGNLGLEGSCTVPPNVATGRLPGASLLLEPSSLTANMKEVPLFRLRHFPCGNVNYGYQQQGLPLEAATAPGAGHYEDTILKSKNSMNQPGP

- IC50 [1, 3]: 0.1 to 1 µM
- IC50 [2, 4]: > 10 µM
SMILES: COCC(COC)N1CCc2cc(Nc3ncc(Cl)c(NC4(CC(N)=O)CCCCC4)n3)c(OC)cc2CC1 [Example 848, 2-(1-{5-Chloro-2-[8-methoxy-3-(2-methoxy-1-methoxymethyl-ethyl)-2,3,4,5-tetrahydro-1H-benzo[d]azepin-7-ylamino]-pyrimidin-4-ylamino}-cyclohexyl)-acetamide]

- IC50 [1, 5]: 0.1 to 1 µM
- IC50 [2, 6]: > 10 µM
SMILES: COc1cc2c(cc1Nc1ncc(Cl)c(Nc3cc(C(N)=O)ccc3OC)n1)CCN(CCS(C)(=O)=O)CC2 [Example 1137, 3-{5-Chloro-2-[3-(2-methanesulfonyl-ethyl)-8-methoxy-2,3,4,5-tetrahydro-1H-benzo[d]azepin-7-ylamino]-pyrimidin-4-ylamino}-4-methoxy-benzamide]

- IC50 [1, 7]: < 0.1 µM
- IC50 [2, 8]: 0.1 to 1 µM
SMILES: COCCN1CCc2ccc(Nc3ncc(Cl)c(NC4C5CCC(C5)C4C(N)=O)n3)cc2CC1 (stereo not drawn) [Example 177, (2-exo,3-exo)-3-{5-Chloro-2-[3-(2-methoxy-ethyl)-2,3,4,5-tetrahydro-1H-benzo[d]azepin-7-ylamino]-pyrimidin-4-ylamino}-bicyclo[2.2.1]heptane-2-carboxylic acid amide]

- IC50 [1, 3]: 0.1 to 1 µM
- IC50 [2, 4]: > 10 µM
SMILES: CNC(=O)c1ccccc1Nc1nc(Nc2cccc3c2N(C)CCN(C)C3=O)ncc1Cl [Example 541, 2-[5-Chloro-2-(1,4-dimethyl-5-oxo-2,3,4,5-tetrahydro-1H-benzo[e][1,4]diazepin-9-ylamino)-pyrimidin-4-ylamino]-N-methyl-benzamide]

- IC50 [1, 9]: 1 to 10 µM
- IC50 [2, 10]: < 0.1 µM
SMILES: CNC(=O)c1scc(C)c1Nc1nc(Nc2ccc3c(c2)CCOC(=O)N3C)ncc1Cl [Example 1759, 3-[5-Chloro-2-(5-methyl-6-oxo-5,6,8,9-tetrahydro-7-oxa-5-aza-benzocyclohepten-2-ylamino)-pyrimidin-4-ylamino]-4-methyl-thiophene-2-carboxylic acid methylamide]

- IC50 [1, 3]: < 0.1 µM
- IC50 [2, 4]: > 10 µM
SMILES: COc1c(Nc2ncc(Cl)c(N[C@@H]3CCCC[C@H]3NS(C)(=O)=O)n2)ccc2c1CCC(N1CCOCC1)CC2 (mixture of isomers) [Example 884, N-{(1R,2R)-2-[5-Chloro-2-(1-methoxy-7-morpholin-4-yl-6,7,8,9-tetrahydro-5H-benzocyclohepten-2-ylamino)-pyrimidin-4-ylamino]-cyclohexyl}-methanesulfonamide]

- IC50 [1, 3]: < 0.1 µM
- IC50 [2, 4]: 1 to 10 µM
SMILES: CCN1CCN(CC)c2cc(Nc3ncc(Cl)c(Nc4cc(Cl)ccc4OC)n3)ccc2C1 [Example 719, 5-Chloro-N*4*(5-chloro-2-methoxy-phenyl-N*2*-(1,4-diethyl-2,3,4,5-tetrahydro-1H-benzo[e][1,4]diazepin-8-yl)-pyrimidine)-2,4-diamine]

- IC50 [1, 9]: 0.1 to 1 µM
- IC50 [2, 10]: < 0.1 µM
SMILES: CNC(=O)c1sc(Cl)c(C)c1Nc1nc(Nc2ccc3c(c2)CCOC(=O)N3C)ncc1Cl [Example 1770, 5-Chloro-3-[5-chloro-2-(5-methyl-6-oxo-5,6,8,9-tetrahydro-7-oxa-5-aza-benzocyclohepten-2-ylamino)-pyrimidin-4-ylamino]-4-methyl-thiophene-2-carboxylic acid methylamide]

- IC50 [1, 5]: 0.1 to 1 µM
- IC50 [2, 6]: > 10 µM
SMILES: COc1cc2c(cc1Nc1ncc(Cl)c(NC3(C(=O)OC(C)C)CCCC3)n1)CCN(CC(=O)N(C)C)CC2 [Example 1202, 1-[5-Chloro-2-(3-dimethylcarbamoylmethyl-8-methoxy-2,3,4,5-tetrahydro-1H-benzo[d]azepin-7-ylamino)-pyrimidin-4-ylamino]-cyclopentanecarboxylic acid isopropyl ester]

- IC50 [1, 5]: < 0.1 µM
- IC50 [2, 6]: < 0.1 µM
SMILES: CNC(=O)c1cc(-c2cnn(C)c2)cc(F)c1Nc1nc(Nc2ccc3c(c2)CCN(CCOC)CC3)ncc1Cl [Example 1423, 2-{5-Chloro-2-[3-(2-methoxy-ethyl)-2,3,4,5-tetrahydro-1H-benzo[d]azepin-7-ylamino]-pyrimidin-4-ylamino}-3-fluoro-N-methyl-5-(1-methyl-1H-pyrazol-4-yl)-benzamide]

- IC50 [1, 9]: < 0.1 µM
- IC50 [2, 10]: > 10 µM
SMILES: COc1cc(N2CCOCC2)ccc1Nc1nc(Nc2ccc3c(c2)N(C(C)C)C(=O)CCC3(C)C)ncc1Cl [Example 1591, 8-[5-Chloro-4-(2-methoxy-4-morpholin-4-yl-phenylamino)-pyrimidin-2-ylamino]-1-isopropyl-5,5-dimethyl-1,3,4,5-tetrahydro-benzo[b]azepin-2-one]

SMILES: CCOC(=O)N1C2CCC1c1c(ccc(Nc3ncc(Cl)c(Nc4ccccc4C(=O)NC)n3)c1Cl)C2 (stereo not shown) [Example 75, 3-Chloro-4-[5-chloro-4-(2-methylcarbamoyl-phenylamino)-pyrimidin-2-ylamino]-12-aza-tricyclo[7.2.1.0*2,7*]dodeca-2(7),3,5-triene-12-carboxylic acid ethyl ester]
- IC50 [1, 7]: < 0.1 µM
- IC50 [2, 8]: 1 to 10 µM

- IC50 [1, 3]: < 0.1 µM
- IC50 [2, 4]: 0.1 to 1 µM
SMILES: CS(=O)(=O)N[C@@H]1CCCC[C@H]1Nc1nc(Nc2ccc3c(c2)CCC(NCC(F)(F)F)CC3)ncc1Cl (stereo partly drawn) [Example 656, N-((1R,2R)-2-{5-Chloro-2-[7-(2,2,2-trifluoro-ethylamino)-6,7,8,9-tetrahydro-5H-benzocyclohepten-2-ylamino]-pyrimidin-4-ylamino}-cyclohexyl)-methanesulfonamide]

- IC50 [1, 3]: < 0.1 µM
- IC50 [2, 4]: > 10 µM
SMILES: COc1cc2c(cc1Nc1ncc(Cl)c(Nc3ccc(N4CCN(C)CC4)cc3OC)n1)CCNC(=O)C2 [Example 778, 7-{5-Chloro-4-[2-methoxy-4-(4-methyl-piperazin-1-yl)-phenylamino]-pyrimidin-2-ylamino}-8-methoxy-1,3,4,5-tetrahydro-benzo[d]azepin-2-one]

- IC50 [1, 3]: < 0.1 µM
- IC50 [2, 4]: 0.1 to 1 µM
SMILES: NC(=O)[C@@H]1[C@H]2CC[C@H](C2)[C@@H]1Nc1nc(Nc2ccc3c(c2)CCC(NCC(F)(F)F)CC3)ncc1Cl (stereo partly drawn) [Example 654, (1S,2R,3S,4R)-3-{5-Chloro-2-[7-(2,2,2-trifluoro-ethylamino)-6,7,8,9-tetrahydro-5H-benzocyclohepten-2-ylamino]-pyrimidin-4-ylamino}-bicyclo[2.2.1]heptane-2-carboxylic acid amide]

- IC50 [1, 9]: 0.1 to 1 µM
- IC50 [2, 10]: 1 to 10 µM
SMILES: COCCN1CCc2ccc(Nc3ncc(Cl)c(N[C@H]4CCC[C@H]4NS(C)(=O)=O)n3)cc2CC1 [Example 1501, N-((1R,2S)-2-{5-Chloro-2-[3-(2-methoxy-ethyl)-2,3,4,5-tetrahydro-1H-benzo[d]azepin-7-ylamino]-pyrimidin-4-ylamino}-cyclopentyl)-methanesulfonamide]

- IC50 [1, 7]: < 0.1 µM
- IC50 [2, 8]: < 0.1 µM
SMILES: CNC(=O)c1ccccc1Nc1nc(Nc2ccc3c(c2)COCCN3C)ncc1Cl [Example 15, 2-[5-Chloro-2-(1-methyl-1,2,3,5-tetrahydro-benzo[e][1,4]oxazepin-7-ylamino)-pyrimidin-4-ylamino]-N-methyl-benzamide]

- IC50 [1, 7]: < 0.1 µM
- IC50 [2, 8]: < 0.1 µM
SMILES: CNS(=O)(=O)c1ccccc1Nc1nc(Nc2ccc3c(c2)CCN(S(C)(=O)=O)CC3)ncc1Cl [Example 43, 2-[5-Chloro-2-(3-methanesulfonyl-2,3,4,5-tetrahydro-1H-benzo[d]azepin-7-ylamino)-pyrimidin-4-ylamino]-N-methyl-benzenesulfonamide]

- IC50 [1, 9]: 1 to 10 µM
- IC50 [2, 10]: 1 to 10 µM
SMILES: CNC(=O)c1ccsc1Nc1nc(Nc2ccc3c(c2)NC(=O)CCC3(C)C)ncc1Cl [Example 1486, 2-[5-Chloro-2-(5,5-dimethyl-2-oxo-2,3,4,5-tetrahydro-1H-benzo[b]azepin-8-ylamino)-pyrimidin-4-ylamino]-thiophene-3-carboxylic acid methyl amide]

- IC50 [1, 3]: 0.1 to 1 µM
- IC50 [2, 4]: 1 to 10 µM
SMILES: Cc1nnc(-c2ccccc2Nc2nc(Nc3ccc4c(c3)C(C)(C)CCC(=O)N4)ncc2Cl)s1 [Example 973, 7-{5-Chloro-4-[2-(5-methyl-[1,3,4]thiadiazol-2-yl)-phenylamino]-pyrimidin-2-ylamino}-5,5-dimethyl-1,3,4,5-tetrahydro-benzo[b]azepin-2-one]

- IC50 [1, 5]: < 0.1 µM
- IC50 [2, 6]: 1 to 10 µM
SMILES: COc1cc2c(cc1Nc1ncc(Cl)c(Nc3ccccc3S(=O)(=O)N(C)C)n1)CCN(C(=O)CN1CCOCC1)CC2 [Example 1192, 2-{5-Chloro-2-[8-methoxy-3-(2-morpholin-4-yl-acetyl)-2,3,4,5-tetrahydro-1H-benzo[d]azepin-7-ylamino]-pyrimidin-4-ylamino}-N,N-dimethyl-benzenesulfonamide]

- IC50 [1, 7]: < 0.1 µM
- IC50 [2, 8]: 1 to 10 µM
SMILES: C#CCN1CCc2ccc(Nc3ncc(Cl)c(Nc4ccc(N5CCOCC5)cc4OC)n3)cc2CC1 [Example 324, 5-Chloro-N*4*-(2-methoxy-4-morpholin-4-yl-phenyl)-N*2*-(3-prop-2-ynyl-2,3,4,5-tetrahydro-1H-benzo[d]azepin-7-yl)-pyrimidine-2,4-diamine]

- IC50 [1, 7]: < 0.1 µM
- IC50 [2, 8]: < 0.1 µM
SMILES: CNC(=O)c1ccccc1Nc1nc(Nc2ccc3c(c2)N(C)CCN(S(C)(=O)=O)C3)ncc1Cl [Example 483, 2-[5-Chloro-2-(4-methanesulfonyl-1-methyl-2,3,4,5-tetrahydro-1H-benzo[e][1,4]diazepin-8-ylamino)-pyrimidin-4-ylamino]-N-methyl-benzamide]
